Test results taken from ChEMBL document CHEMBL1157400, “Cytotoxic staurosporines from the marine ascidian Cystodytes solitus” (2008).

Experiments:
Format in all cases: functional
HT-29 = assay: Cytotoxicity against human HT29 cells after 72 hrs by sulforhodamine B method; conditions: HT-29, 72 h
MDA-MB-231 = assay: Cytotoxicity against human MDA-MB-231 cells after 72 hrs by sulforhodamine B method; conditions: MDA-MB-231, 72 h
A549 = assay: Cytotoxicity against human A549 cells after 72 hrs by sulforhodamine B method; conditions: A549, 72 h

Structure (SMILES)	GI50 (HT-29)	GI50 (MDA-MB-231)	GI50 (A549)
CO[C@@H]1[C@H](N)C[C@H]2O[C@]1(C)n1c3ccc(O)c(O)c3c3c4c(c5c6ccccc6n2c5c31)C(=O)NC4=O	90.3 nM	32.1 nM	17.5 nM
CN[C@@H]1C[C@H]2O[C@@](C)([C@@H]1OC)n1c3ccc(O)c(O)c3c3c4c(c5c6cc(O)ccc6n2c5c31)C(=O)NC4=O	68.1 nM	28.4 nM	26.6 nM
CN[C@@H]1C[C@H]2O[C@@](C)([C@@H]1OC)n1c3ccccc3c3c4c(c5c6ccccc6n2c5c31)C(=O)NC4 [STAUROSPORINE]	10.9 nM	7.1 nM	2.4 nM
